target: T1, Gonadotropin-releasing hormone receptor (Homo sapiens, UniProt P30968); assay: Binding affinity towards human gonadotropin-releasing hormone receptor expressed in HEK293 cells using des-Gly10-[125I]Tyr,5 DLeu,6 NMeLeu,7 Pro9-NEt GnRH as radioligand.; format: cell-based; details: not given
T1 sequence (P30968 whole entry): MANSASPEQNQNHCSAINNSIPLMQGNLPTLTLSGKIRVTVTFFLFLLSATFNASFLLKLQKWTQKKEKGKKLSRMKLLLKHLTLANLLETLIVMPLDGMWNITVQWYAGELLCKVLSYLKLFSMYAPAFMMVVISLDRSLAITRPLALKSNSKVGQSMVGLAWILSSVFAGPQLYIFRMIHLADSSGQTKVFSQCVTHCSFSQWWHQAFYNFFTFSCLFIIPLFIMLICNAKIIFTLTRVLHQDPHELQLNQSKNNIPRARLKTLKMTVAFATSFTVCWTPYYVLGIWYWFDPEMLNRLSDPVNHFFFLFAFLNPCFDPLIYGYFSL

| Structure (SMILES) | Ki [µM] |
| --- | --- |
| Cc1c(-c2ccccc2F)c(=O)n(C[C@H](N)c2ccccc2)c(=O)n1CCN(C)C | > 10 |
| Cc1c(-c2ccccc2F)c(=O)n(C[C@H](N)c2ccccc2)c(=O)n1C1CCCCC1 | 0.26 |
| Cc1c(-c2ccccc2F)c(=O)n(C[C@H](N)c2ccccc2)c(=O)n1Cc1ccc(F)cc1Cl | 0.033 |
| Cc1c(-c2ccccc2F)c(=O)n(C[C@H](N)c2ccccc2)c(=O)n1CC1CC1 | 1.1 |
| Cc1c(-c2ccccc2F)c(=O)n(C[C@H](N)c2ccccc2)c(=O)n1CCO | > 10 |
| CCCCCn1c(C)c(-c2ccccc2F)c(=O)n(C[C@H](N)c2ccccc2)c1=O | 0.23 |
| COCCn1c(C)c(-c2ccccc2F)c(=O)n(C[C@H](N)c2ccccc2)c1=O | 1.7 |
| Cc1c(-c2ccccc2F)c(=O)n(C[C@H](N)c2ccccc2)c(=O)n1Cc1c(F)cccc1Cl | 0.0007 |
| Cc1c(-c2ccccc2F)c(=O)n(C[C@H](N)c2ccccc2)c(=O)n1CC1CCCCC1 | 0.2 |
| Cc1ccc(Cn2c(C)c(-c3ccccc3F)c(=O)n(C[C@H](N)c3ccccc3)c2=O)o1 | 0.43 |
| Cc1c(-c2ccccc2F)c(=O)n(C[C@H](N)c2ccccc2)c(=O)n1CCN1CCNCC1 | > 10 |
| Cc1c(-c2ccccc2F)c(=O)n(C[C@H](N)c2ccccc2)c(=O)n1Cc1c(F)cccc1F | 0.006 |

Next, values leading:

| Ki [µM] | Structure (SMILES) |
| --- | --- |
| 0.057 | Cc1c(-c2ccccc2F)c(=O)n(C[C@H](N)c2ccccc2)c(=O)n1Cc1ccccc1 |
| 0.02 | Cc1c(-c2ccccc2F)c(=O)n(C[C@H](N)c2ccccc2)c(=O)n1Cc1ccccc1F |
| 0.5 | Cc1c(-c2ccccc2F)c(=O)n(C[C@H](N)c2ccccc2)c(=O)n1CC(C)C |
| 1 | Cc1c(-c2ccccc2F)c(=O)n(C[C@H](N)c2ccccc2)c(=O)n1CCc1ccccc1 |
| 0.23 | COc1ccccc1Cn1c(C)c(-c2ccccc2F)c(=O)n(C[C@H](N)c2ccccc2)c1=O |
| 0.075 | Cc1c(-c2ccccc2F)c(=O)n(C[C@H](N)c2ccccc2)c(=O)n1Cc1ccc(F)cc1 |
| 0.004 | Cc1c(-c2ccccc2F)c(=O)n(C[C@H](N)c2ccccc2)c(=O)n1Cc1ccccc1C(F)(F)F |
| 0.035 | Cc1ccccc1Cn1c(C)c(-c2ccccc2F)c(=O)n(C[C@H](N)c2ccccc2)c1=O |
| 0.027 | Cc1c(-c2ccccc2F)c(=O)n(C[C@H](N)c2ccccc2)c(=O)n1Cc1ccccc1Cl |
| 0.14 | Cc1c(-c2ccccc2F)c(=O)n(C[C@H](N)c2ccccc2)c(=O)n1C(C)c1ccccc1 (some centres not stated) |
| 0.077 | Cc1c(-c2ccccc2F)c(=O)n(C[C@H](N)c2ccccc2)c(=O)n1Cc1ccccn1 |
| > 10 | Cc1c(-c2ccccc2F)c(=O)n(C[C@H](N)c2ccccc2)c(=O)n1CCc1ccccn1 |
| 0.067 | Cc1c(-c2ccccc2F)c(=O)n(C[C@H](N)c2ccccc2)c(=O)n1Cc1cccc(F)c1 |
| 0.7 | Cc1c(-c2ccccc2F)c(=O)n(C[C@H](N)c2ccccc2)c(=O)n1Cc1cccnc1 |

tested on: HEK293; assay: Inhibitory activity against GnRH (5 nM) stimulated [Ca2+] release in transfected cells; format: functional, cell-based; details: Homo sapiens

| Structure (SMILES) | IC50 [µM] |
| --- | --- |
| Cc1c(-c2ccccc2F)c(=O)n(C[C@H](N)c2ccccc2)c(=O)n1Cc1c(F)cccc1Cl | 0.0028 |
